Converted amounts (≈) assume the structure as drawn.

One assay deals with Francisella tularensis (FT; Gram-negative). Kind of assay: microbe, parasite or virus in culture. It counts as cell-based. As to conditions: read-out: MIC FT.
For the compound `Clc1ccc2[nH]c3c(OCCCNCc4ccc[nH]4)c4[nH]c5ccc(Cl)cc5c4cc3c2c1`, the MIC was found to be 0.5 µg/mL (≈ 1.05 µM).
On the same count and under the same terms, under `CN(C)CCOc1c2[nH]c3ccc(Cl)cc3c2cc2c1[nH]c1ccc(Cl)cc12` stands 0.25 µg/mL (≈ 0.606 µM).
Consider `Fc1ccc2[nH]c3c(OC4CCNCC4)c4[nH]c5ccc(F)cc5c4cc3c2c1`, for which the MIC was not above 0.25 µg/mL.
The same measure, in the same setting: the result for `Nc1nc(N)n(CCCOc2c3[nH]c4ccc(Cl)cc4c3cc3c2[nH]c2ccc(Cl)cc23)n1` reads 1 µg/mL (≈ 2.08 µM).
On the same count and under the same terms, under `Fc1ccc2[nH]c3c(OC4CCCNC4)c4[nH]c5ccc(F)cc5c4cc3c2c1` (stereo not drawn) stands 1 µg/mL (≈ 2.55 µM).
With `NCCCOc1c2[nH]c3ccc(F)cc3c2cc2c1[nH]c1ccc(F)cc12`, the MIC was 0.5 µg/mL (≈ 1.37 µM).
On the same count and under the same terms, the result for `Fc1ccc2[nH]c3c(OC[C@H]4CCCN4)c4[nH]c5ccc(F)cc5c4cc3c2c1` reads 0.5 µg/mL (≈ 1.28 µM).
Still for that read-out and setting: under `NC1CCN(CCCOc2c3[nH]c4ccc(Cl)cc4c3cc3c2[nH]c2ccc(Cl)cc23)CC1` stands 1 µg/mL (≈ 2.08 µM).

In the next assay the test system is Bacillus anthracis (BA; Gram-positive). Kind of assay: microbe, parasite or virus in culture. It counts as cell-based. As to conditions: read-out: MIC BA.
`Clc1ccc2[nH]c3c(OCCCNCc4ccc[nH]4)c4[nH]c5ccc(Cl)cc5c4cc3c2c1`: the MIC turned out to be 0.5 µg/mL (≈ 1.05 µM).
On the same count and under the same terms, the result for `CN(C)CCOc1c2[nH]c3ccc(Cl)cc3c2cc2c1[nH]c1ccc(Cl)cc12` reads 0.5 to 1 µg/mL (≈ 1.21 to 2.43 µM).
In the case of `Fc1ccc2[nH]c3c(OC4CCNCC4)c4[nH]c5ccc(F)cc5c4cc3c2c1`, the MIC was not above 0.25 µg/mL.
Same read-out and setting: the result for `Nc1nc(N)n(CCCOc2c3[nH]c4ccc(Cl)cc4c3cc3c2[nH]c2ccc(Cl)cc23)n1` reads 0.5 to 1 µg/mL (≈ 1.04 to 2.08 µM); that for `Fc1ccc2[nH]c3c(OC4CCCNC4)c4[nH]c5ccc(F)cc5c4cc3c2c1` (stereo not drawn), 0.5 µg/mL (≈ 1.28 µM); that for `NCCCOc1c2[nH]c3ccc(F)cc3c2cc2c1[nH]c1ccc(F)cc12`, 0.5 µg/mL (≈ 1.37 µM).
On the same count and under the same terms, the result for `Fc1ccc2[nH]c3c(OC[C@H]4CCCN4)c4[nH]c5ccc(F)cc5c4cc3c2c1` reads 0.5 µg/mL (≈ 1.28 µM).
As to `NC1CCN(CCCOc2c3[nH]c4ccc(Cl)cc4c3cc3c2[nH]c2ccc(Cl)cc23)CC1`, the MIC was determined as 2 µg/mL (≈ 4.15 µM).

Another assay concerns Yersinia pestis (YP; Gram-negative). Kind of assay: microbe, parasite or virus in culture. It counts as cell-based. To be noted: read-out: MIC YP.
Consider `Clc1ccc2[nH]c3c(OCCCNCc4ccc[nH]4)c4[nH]c5ccc(Cl)cc5c4cc3c2c1`, for which the MIC amounted to 2 µg/mL (≈ 4.19 µM).
Still for that read-out and setting: the result for `CN(C)CCOc1c2[nH]c3ccc(Cl)cc3c2cc2c1[nH]c1ccc(Cl)cc12` reads 2 µg/mL (≈ 4.85 µM); that for `Fc1ccc2[nH]c3c(OC4CCNCC4)c4[nH]c5ccc(F)cc5c4cc3c2c1`, 8 µg/mL (≈ 20.4 µM); that for `Nc1nc(N)n(CCCOc2c3[nH]c4ccc(Cl)cc4c3cc3c2[nH]c2ccc(Cl)cc23)n1`, 8 µg/mL (≈ 16.7 µM).
The same measure, in the same setting: under `Fc1ccc2[nH]c3c(OC4CCCNC4)c4[nH]c5ccc(F)cc5c4cc3c2c1` (stereo not drawn) stands 4 µg/mL (≈ 10.2 µM).
Same read-out and setting: the result for `NCCCOc1c2[nH]c3ccc(F)cc3c2cc2c1[nH]c1ccc(F)cc12` reads 2 µg/mL (≈ 5.47 µM).
Regarding `Fc1ccc2[nH]c3c(OC[C@H]4CCCN4)c4[nH]c5ccc(F)cc5c4cc3c2c1`, the MIC is 2 µg/mL (≈ 5.11 µM).
As to `NC1CCN(CCCOc2c3[nH]c4ccc(Cl)cc4c3cc3c2[nH]c2ccc(Cl)cc23)CC1`, the MIC is 4 µg/mL (≈ 8.31 µM).

Another assay concerns Brucella abortus (BAB; Gram-negative). In words: microbe, parasite or virus in culture. To be noted: read-out: MIC BAB. It counts as cell-based.
On to `Clc1ccc2[nH]c3c(OCCCNCc4ccc[nH]4)c4[nH]c5ccc(Cl)cc5c4cc3c2c1`, for which the MIC came to 0.5 µg/mL (≈ 1.05 µM).
Same read-out and setting: under `CN(C)CCOc1c2[nH]c3ccc(Cl)cc3c2cc2c1[nH]c1ccc(Cl)cc12` stands 0.5 µg/mL (≈ 1.21 µM); under `Fc1ccc2[nH]c3c(OC4CCNCC4)c4[nH]c5ccc(F)cc5c4cc3c2c1`, not above 0.25 µg/mL; under `Nc1nc(N)n(CCCOc2c3[nH]c4ccc(Cl)cc4c3cc3c2[nH]c2ccc(Cl)cc23)n1`, 1 µg/mL (≈ 2.08 µM).
The same measure, in the same setting: the result for `Fc1ccc2[nH]c3c(OC4CCCNC4)c4[nH]c5ccc(F)cc5c4cc3c2c1` (stereo not drawn) reads 0.5 µg/mL (≈ 1.28 µM); that for `NCCCOc1c2[nH]c3ccc(F)cc3c2cc2c1[nH]c1ccc(F)cc12`, 0.5 µg/mL (≈ 1.37 µM); that for `Fc1ccc2[nH]c3c(OC[C@H]4CCCN4)c4[nH]c5ccc(F)cc5c4cc3c2c1`, 0.5 µg/mL (≈ 1.28 µM).
In the case of `NC1CCN(CCCOc2c3[nH]c4ccc(Cl)cc4c3cc3c2[nH]c2ccc(Cl)cc23)CC1`, the MIC came to 1 µg/mL (≈ 2.08 µM).

For the next assay, the system named is Burkholderia mallei (BM; Gram-negative). Kind of assay: microbe, parasite or virus in culture. As to conditions: read-out: MIC BM. It counts as cell-based.
For the compound `Clc1ccc2[nH]c3c(OCCCNCc4ccc[nH]4)c4[nH]c5ccc(Cl)cc5c4cc3c2c1`, the MIC was more than 8 µg/mL.
`CN(C)CCOc1c2[nH]c3ccc(Cl)cc3c2cc2c1[nH]c1ccc(Cl)cc12`: the MIC was 8 µg/mL (≈ 19.4 µM).
On the same count and under the same terms, under `Fc1ccc2[nH]c3c(OC4CCNCC4)c4[nH]c5ccc(F)cc5c4cc3c2c1` stands 4 µg/mL (≈ 10.2 µM); under `Nc1nc(N)n(CCCOc2c3[nH]c4ccc(Cl)cc4c3cc3c2[nH]c2ccc(Cl)cc23)n1`, more than 8 µg/mL; under `Fc1ccc2[nH]c3c(OC4CCCNC4)c4[nH]c5ccc(F)cc5c4cc3c2c1` (stereo not drawn), 8 µg/mL (≈ 20.4 µM).
As to `NCCCOc1c2[nH]c3ccc(F)cc3c2cc2c1[nH]c1ccc(F)cc12`, the MIC came to 8 µg/mL (≈ 21.9 µM).
On the same count and under the same terms, the result for `Fc1ccc2[nH]c3c(OC[C@H]4CCCN4)c4[nH]c5ccc(F)cc5c4cc3c2c1` reads 8 µg/mL (≈ 20.4 µM); that for `NC1CCN(CCCOc2c3[nH]c4ccc(Cl)cc4c3cc3c2[nH]c2ccc(Cl)cc23)CC1`, 16 µg/mL (≈ 33.2 µM).

The next assay deals with Burkholderia pseudomallei (BP; Gram-negative). In words: microbe, parasite or virus in culture. It counts as cell-based. To be noted: read-out: MIC BP.
On to `Clc1ccc2[nH]c3c(OCCCNCc4ccc[nH]4)c4[nH]c5ccc(Cl)cc5c4cc3c2c1`, for which the MIC was more than 8 µg/mL.
On the same count and under the same terms, the result for `CN(C)CCOc1c2[nH]c3ccc(Cl)cc3c2cc2c1[nH]c1ccc(Cl)cc12` reads 16 µg/mL (≈ 38.8 µM); that for `Fc1ccc2[nH]c3c(OC4CCNCC4)c4[nH]c5ccc(F)cc5c4cc3c2c1`, 8 µg/mL (≈ 20.4 µM); that for `Nc1nc(N)n(CCCOc2c3[nH]c4ccc(Cl)cc4c3cc3c2[nH]c2ccc(Cl)cc23)n1`, more than 8 µg/mL.
Consider `Fc1ccc2[nH]c3c(OC4CCCNC4)c4[nH]c5ccc(F)cc5c4cc3c2c1` (stereo not drawn), for which the MIC was more than 8 µg/mL.
Still for that read-out and setting: under `NCCCOc1c2[nH]c3ccc(F)cc3c2cc2c1[nH]c1ccc(F)cc12` stands 8 µg/mL (≈ 21.9 µM); under `Fc1ccc2[nH]c3c(OC[C@H]4CCCN4)c4[nH]c5ccc(F)cc5c4cc3c2c1`, 8 µg/mL (≈ 20.4 µM); under `NC1CCN(CCCOc2c3[nH]c4ccc(Cl)cc4c3cc3c2[nH]c2ccc(Cl)cc23)CC1`, more than 16 µg/mL.

For the origin of these results see patent US8399502B2, “Analogs of indole-3-carbinol and their use as agents against infection” (priority 2008, dated 2013).
